{
  "source": "patent US20260217712A1",
  "about": "“SOLID STATE FORMS OF MNK INHIBITORS” (4E Therapeutics, Inc., priority 2023, published 2026)",
  "assay_type_in_all_cases": "physicochemical",
  "key": {"[1]": {"assay": "pKa measurements"}, "[2]": {"assay": "Slurry in pH 2.0 buffer, XRPD", "settings": "pH 2.0 chloride buffer, RT, 5 days", "procedure": "Structure (I) (from Lot B, 30 mg) was suspended in pH 2.0 buffer (chloride buffer, 3 mL) and placed in a shaker at RT. After 1 day, the sample was filtered and analyzed by XRPD. The sample was re-suspended in pH 2.0 buffer (2 mL) and returned to shaking at RT for 4 days. The sample was aliquoted and analyzed by XRPD, before filtration and drying under suction."}, "[3]": {"assay": "Heating for 24 h in a vacuum tray dryer, XRPD and HPLC", "procedure": "A polymorphism study of Structure (I) was performed at 75° C., 100° C., 175° C., and 250° C. About 500 mg of Structure (I) Pattern 3 was heated at 75° C. for 24 h in a vacuum tray dryer (VTD) under reduced pressure. Obtained material after heating at 75° C. was analyzed for purity by HPLC and XPRD analysis. […] Additionally, about 500 mg of Structure (I) was heated at 75° C. for 24 h in a VTD under reduced pressure. After 24 h, material was cooled to 25-30° C. under inert atmosphere and analyzed for purity by HPLC and XRPD.\nAbout 500 mg of Structure (I) was heated at 100° C. for 24 h in a VTD under reduced pressure. Obtained material after heating at 100° C. was analyzed for purity by HPLC and XPRD. […] Additionally, about 500 mg of Structure (I) was heated at 100° C. for 24 h in a VTD under reduced pressure. After 24 h material was cooled to 25-30° C. under inert atmosphere. Obtained material was analyzed for purity by HPLC and XPRD.\nObtained material after heating at 175° C. was analyzed for purity by HPLC and XPRD. […] After 24 h, material was cooled to 25-30° C. under inert atmosphere. Obtained material was analyzed for purity by HPLC and XPRD.\nAbout 500 mg of Structure (I) was heated at 250° C. for 24 h in a VTD. Obtained material after heating at 250° C. was analyzed for purity by HPLC and XPRD."}, "[4]": {"assay": "Variable temperature XRPD (VT-XRPD)", "settings": "250° C.", "description": "(§1) XRPD diffractograms were collected on a PANalytical Empyrean diffractometer using Cu Kα radiation (45 kV, 40 mA, λ=1.544398 Å) in reflection geometry. The instrument was fitted with an Anton Paar CHC plus+ stage fitted with graphite/Kapton windows and equipped with air cooling coupled or a low vacuum pump system using an Edwards RV3 pump. A programmable divergence slit (in automatic mode), with a 10 mm fixed incident beam mask, Ni filter and 0.04 rad Soller slits were used on the incident beam. A PIXcel3D detector, placed on the diffracted beam, was fitted with a programmable anti-scatter slit (in automatic mode) and 0.04 rad Soller slits.\nFor variable temperature (VT-XRPD) experiments the samples were prepared and analyzed in an Anton Paar chromed sample holder. The sample chamber was under ambient atmosphere and a heating/cooling rate of 10° C./min was used with a 2 min isothermal hold before the measurement started. The measurement parameters are as per the standard screening data collection method (detailed above). Measurements were taken at the following temperatures: 25, 80, 170, 250, and 25° C."}, "[5]": {"assay": "XRPD under vacuum", "settings": "vacuum released for 30 min, ambient conditions", "description": "as §1\nFor XRPD under vacuum the samples were prepared and analyzed in an Anton Paar chromed sample holder. The sample temperature was kept constant throughout at 25° C. The measurement parameters are as per the standard screening data collection method (detailed above). An initial measurement was taken before the vacuum was initiated and then subsequently at 10 min intervals. Data collection was stopped after three consecutive scans showing no change."}, "[6]": {"assay": "Drying / standing under ambient conditions, XRPD", "settings": "ambient conditions", "procedure": "Structure (I) (Sample 28-2, 30 mg, Poorly Crystalline Pattern 3) was wetted with solvent (300 μL, 10 vol) according to Table 30 and put into a shaker at 50° C. for 6 days. The suspensions were isolated using filter cartridges and positive pressure. A XRPD pattern was collected for each sample. […] This characterization is presented and discussed in Examples detailed herein. (see, e.g., FIG. 75)"}, "[7]": {"assay": "Gravimetric solubility measurements from competitive slurry samples", "settings": "organic solvent or mixture, thermodynamic from solid, room temperature", "description": "In order to determine that Pattern 3 was not simply being dissolved in the solvent systems when the solid was introduced, gravimetric solubility measurements were made using the samples at room temperature. […] There was insufficient solubility at room temperature to dissolve the Pattern 3 present in the competitive slurry experiments."}, "[8]": {"assay": "Competitive slurries of Pattern 3 and Pattern 11, XRPD", "settings": "competitive slurry, solvent and temperature per sample; for XRPD after 7 days: 20 vol", "procedure": "A solid mixture of Structure (I) Pattern 3 (from Lot B, 300 mg) and Pattern 11 (Sample 35-1, 300 mg) was mixed for 3 hours using a turbula mixer.\nThe solid mixture (30 mg) was suspended in solvent (dried with molecular sieves, 600 μL, 20 vol) and either stirred in the fridge, shaken at RT or 55° C. After 7 days, an aliquot of each suspension was analyzed by XRPD. Samples that were still a mixture of forms were placed back into fridge/shakers for a further 10 days and re-analyzed (results shown in Table 36).\nCompetitive slurry experiments at 55° C., along with one at 5° C., were repeated using a saturated solution as the solvent mixture to minimize dissolution that may have occurred at temperatures other than room temperature.\nA saturated solution of THF/Water (9:1) (5 mL) with Structure (I) (from Lot B) was equilibrated at 55° C. overnight in a shaker. The solution was filtered using 0.45 μm nylon filter before use.\nA solid mixture of Pattern 3 and Pattern 11 (30 mg) was suspended in the saturated solution (600 μL, 20 vol) and either stirred in the fridge (5° C.) or shaken at 55° C. After 1 day, aliquots of the suspensions were analyzed by XRPD. Both samples were placed back into fridge/shaker. After a total of 11 days, the samples were removed from fridge/shaker. Sample 38-2 was filtered before XRPD, Sample 38-1 was pipetted onto the XRPD holder and allowed to dry before analysis (solid passed through filter)."}},
  "note": "Like-named read-outs stand apart in the source and are kept apart here.",
  "data": [
    {"smiles": "Cc1cc(Nc2cc(N)ncn2)c(=O)n2c1C(=O)NC21CCC2(CC2)CC1", "note": "[Structure (I), 6″-((6-aminopyrimidin-4-yl)amino)-8″-methyl-2″H-dispiro[cyclopropane-1, l′-cyclohexane-4′,3″-imidazo[1,5-a]pyridine]-1″,5″-dione]", "values": [
      {"measurement": "pKa", "setting": "[1]; read-out: acidic pKa (acidic center)", "value": 11.5},
      {"measurement": "pKa", "setting": "[1]; read-out: basic pKa", "value": 4.73},
      {"measurement": "XRPD form after slurry in pH 2.0 buffer", "setting": "[2]", "value": "Pattern 1"},
      {"measurement": "HPLC purity change after heating at 100° C.", "setting": "[3]; 100° C., reduced pressure", "value": "no change"},
      {"measurement": "XRPD form after heating at 100° C.", "setting": "[3]; 100° C., reduced pressure", "value": "remained as Pattern 3"},
      {"measurement": "HPLC purity change after heating at 175° C.", "setting": "[3]; 175° C., reduced pressure", "value": "no change"},
      {"measurement": "XRPD form after heating at 175° C.", "setting": "[3]; 175° C., reduced pressure", "value": "converted to Pattern 11"},
      {"measurement": "XRPD form after heating at 250° C.", "setting": "[3]; 250° C.", "value": "converted to Pattern 11"}
    ]},
    {"smiles": "Cc1cc(Nc2cc(N)ncn2)c(=O)n2c1C(=O)NC21CCC2(CC2)CC1", "note": "[Pattern 10]", "values": [
      {"measurement": "VT-XRPD form at 250° C.", "setting": "[4]", "value": "partially converted to Pattern 11"},
      {"measurement": "XRPD after vacuum released", "setting": "[5]", "value": "converted back to Pattern 3"},
      {"measurement": "form under ambient conditions (XRPD after ambient overnight)", "setting": "[6]", "value": "converted back to Pattern 3"}
    ]},
    {"smiles": "Cc1cc(Nc2cc(N)ncn2)c(=O)n2c1C(=O)NC21CCC2(CC2)CC1", "note": "[Pattern 36-8]", "values": [
      {"measurement": "solubility", "setting": "[7]; Toluene", "value": 2300, "unit": "µg/mL"},
      {"measurement": "XRPD after 7 days", "setting": "[8]", "value": "Patterns 3 and 11"},
      {"measurement": "XRPD after 17 days", "setting": "[8]", "value": "Patterns 3 and 11"}
    ]},
    {"smiles": "Cc1cc(Nc2cc(N)ncn2)c(=O)n2c1C(=O)NC21CCC2(CC2)CC1", "note": "[Pattern 36-9]", "values": [
      {"measurement": "solubility", "setting": "[7]; IPA/Water (95:5)", "value": 3800, "unit": "µg/mL"},
      {"measurement": "XRPD after 7 days", "setting": "[8]", "value": "Patterns 3 and 11"},
      {"measurement": "XRPD after 17 days", "setting": "[8]", "value": "Patterns 3 and 11"}
    ]},
    {"smiles": "Cc1cc(Nc2cc(N)ncn2)c(=O)n2c1C(=O)NC21CCC2(CC2)CC1", "note": "[Pattern 36-10]", "values": [
      {"measurement": "solubility", "setting": "[7]; THF/Water (9:1)", "value": 8100, "unit": "µg/mL"},
      {"measurement": "XRPD after 7 days", "setting": "[8]", "value": "Patterns 3 and 11"},
      {"measurement": "XRPD after 17 days", "setting": "[8]", "value": "Patterns 3 and 11"}
    ]}
  ]
}
